One data set concerns P388 leukemia. Briefly: Antitumor activity against intraperitoneally transplanted P388 leukemia in mice. Format: in vivo. The settings on record: given 1 day and 5 days after transplantation of P388 leukemia 1 x 10^6 cells/mouse i.p., survival days of saline control group = 100. The protocol: For example, into CDF, mice were intraperitoneally transplanted P388 leukemia 1 x 10^6 cells/mouse as a suspension, and 2-bromo-6,7-dichloro-1-tetralone which is typical of the compounds of the present invention was administered to the mice 1 day and 5 days respectively after the transplantation. The effect of the test compound was evaluated in terms of the increase of life span (%) as calculated by determining the survival days of the control group consisting of mice administered with physiological saline solution as 100.

The subject of a further data set is Candida albicans. The experiment in a line: Minimum inhibitory concentration on Sabouraud's agar medium (Yamano et al. method). Format: cell-based. As to conditions: 168 h, agar plate, 27°C for 7 days. The protocol:
(§1) Sabouraud's agar medium was used as a culture medium. (A liquid culture medium was prepared from the same ingredients except for agar).
(§2) This culture medium was prepared by dissolving the above ingredients under heat, and the medium thus prepared was sterilized under the conditions of 1.05 bar (15 Ibs.lin^2) for 15 minutes.
(§3) The microorganisms to be tested were fungi of the species Trichophyton mentagrophytes (A), Trichophyton asteroides (B) and Candida a/bicans (C). Each of these microorganisms was cultivated on the corresponding slant medium at 27°C for 7 days. A loopful of each of the microorganisms (A), (B) and (C) was triturated in a mortar, charged into a test tube containing 10 ml of physiological saline solution, and suspended therein with a thermomixer. Each of the suspensions thus prepared was used in the test.
(§4) 9 ml of the culture medium and 1 ml of a dilute sample were thoroughly admixed with each other in a Petri dish to prepare an agar plate, which was then streaked with the suspension containing each of the microorganisms to be tested by using a sterile platinum wire loop. The microorganisms (A), (B) and (C) thus inoculated on the agar plates were cultivated at 27°C for 7 days, and thereafter the MIC thereof was determined.

In the next data set the test system is Trichophyton asteroides. The description is as above. Format: cell-based. As to conditions: 168 h, agar plate, 27°C for 7 days. Here is the method:
as §1, §2, §3, §4

For data set [1], the system named is Trichophyton mentagrophytes. Described as above. Format: cell-based. As to conditions: 168 h, agar plate, 27°C for 7 days. Here is the method:
as §1, §2, §3, §4

A further data set is described as follows: Toxicity (LD50) to mice. As to conditions: mouse, in vivo.

Converted amounts (≈) assume the structure as drawn.

Consider `O=C1c2cc(Cl)c(Cl)cc2CCC1Br` (centres unmarked) [2-bromo-6,7-dichloro-1-tetralone], for which the “Survival time relative to saline control (T/C, control = 100)” value stood at 129% with P388 leukemia (Dose 10.0 mg/kg/day) and 140% in the data set on P388 leukemia (Dose 50.0 mg/kg/day). In addition, the MIC (as a rule, the lowest concentration found to suppress growth) in the data set with Candida albicans was 1.56 µg/mL (≈ 5.31 µM); against Trichophyton asteroides, 0.78 to 1.56 µg/mL (≈ 2.65 to 5.31 µM); in data set [1], 0.78 µg/mL (≈ 2.65 µM). The LD50 – broadly, the dose expected to kill half of the subjects tested – was over 1500 mg/kg in the data set “Toxicity (LD50) to mice” (Oral); 820 mg/kg in the data set “Toxicity (LD50) to mice” (ip, Intraperitoneal); over 1500 mg/kg in the data set “Toxicity (LD50) to mice” (sc, Subcutaneous).
Turning to `O=C1c2cc(Cl)cc(Cl)c2CCC1Br` (centres unmarked) [2-bromo-5,7-dichloro-1-tetralone], the minimum inhibitory concentration (MIC) (against Candida albicans; against Trichophyton asteroides; in data set [1]) was 1.56 µg/mL (≈ 5.31 µM) each time.
For the molecule `COC1=CC(=O)C[C@@H](C)[C@]12Oc1c(Cl)c(OC)cc(OC)c1C2=O` [griseofulvin, reference compound], the MIC was over 200 µg/mL against Candida albicans, 6.25 µg/mL (≈ 17.7 µM) in the data set with Trichophyton asteroides and 6.25 µg/mL (≈ 17.7 µM) in data set [1].
In the case of `O=C1c2cc(F)ccc2CCC1Br` (centres unmarked) [2-bromo-7-fluoro-1-tetralone], the MIC with Candida albicans came out at 6.25 µg/mL (≈ 25.7 µM); with Trichophyton asteroides, 3.13 µg/mL (≈ 12.9 µM); in data set [1], 3.13 µg/mL (≈ 12.9 µM).

For the origin of these results see patent EP0125695B1, “2-Bromo-1-tetralone derivatives” (KIRIN BEER KABUSHIKI KAISHA, priority 1983, dated 1984).
